SMILES strings stand for the structures. Where a SMILES comes first, the peptide text is derived from it. [ ]: non-standard residue; d: D form. dHyp = O=C(O)[C@H]1C[C@H](O)CN1

For experiment [1], the system named is HMC3 (human microglia) cell line. Description: pHrodo-myelin phagocytosis/cell viability high content imaging assay: phagocytosis signal. In kind it is cell-based. In outline:
(§1)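 Phagocytosis and cell viability were measured together by high content imaging about 22 hours after pHrodo-myelin addition. Three measurements were extracted from the images. Intensity increase and decrease were taken as early and later apoptosis, respectively.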

Experiment [2] concerns BV2 (mouse microglia) cell line. The experiment is described as above. In kind it is cell-based. In a few lines:
as §1

The test system of experiment [3] is HMC3 (human microglia) cell line. The experiment is described as follows: pHrodo-myelin phagocytosis/cell viability high content imaging assay: viability (cell count, nuclear area, nuclear intensity). To be noted: 48 hours treatment. In outline: (§2)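 10 μM single dose, 48 h total; pHrodo-myelin present final 20 h. Read-out: automated imaging, total cell count/well, mean nuclear intensity/cell. n=2, normalized to untreated wells, % control.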

Experiment [4] has as its system BV2 (mouse microglia) cell line. The experiment is described as above. To be noted: 48 hours treatment. In a few lines:
as §2

Setting [5] is: HMC3 cells, 10 uM compound, 48 hours treatment, pHrodo-myelin final 20 hours.
The mark [6] stands for this setting: BV2 cells, 10 uM compound, 48 hours treatment, pHrodo-myelin final 20 hours.
Setting [7] is: HMC3, compound 10 uM, pHrodo-myelin.
The mark [8] stands for this setting: BV2, compound 10 uM, pHrodo-myelin.

With `COc1ccc2nc([S+]([O-])Cc3ncc(C)c(OC)c3C)nc-2[nH]1` (stereo not drawn) [UNC10303106A], in experiment [1] (setting [5]), the “4. Phagocytosis (% control)” value was found to be 91.6 % control. Moreover, the “4. Phagocytosis (% control)” value in experiment [2] (setting [6]) was 116.6 % control. Further, in experiment [3] (HMC3 cells, 10 uM compound), the “1. Cell count (% control)” value came to 100.3 % control, the “2. Nuclear Area (% Control)” value was 105.8 % Control and the “3. Nuclear DNA Intensity (% control)” value came to 97.2 % control. In experiment [4] (BV2 cells, 10 uM compound), the “1. Cell count (% control)” value is reported as 113.2 % control, the “2. Nuclear Area (% Control)” value is on record as 104.8 % Control and the “3. Nuclear DNA Intensity (% control)” value is listed as 103.4 % control.

Consider `CN1c2ccc([N+](=O)[O-])cc2N=C(c2ccc(C(=O)O)cc2)c2cc3c(cc21)C(C)(C)CCC3(C)C` [UNC10303107A], for which the “4. Phagocytosis (% control)” value in experiment [1] (setting [5]) was determined as 76.2 % control. The “4. Phagocytosis (% control)” value in experiment [2] (setting [6]) is 117.4 % control. In experiment [3] (HMC3 cells, 10 uM compound), the “1. Cell count (% control)” value stood at 75.4 % control, the “2. Nuclear Area (% Control)” value was 99.6 % Control and the “3. Nuclear DNA Intensity (% control)” value is 105.3 % control. In experiment [4] (BV2 cells, 10 uM compound), the “1. Cell count (% control)” value amounted to 16.8 % control, the “2. Nuclear Area (% Control)” value is listed as 151.2 % Control and the “3. Nuclear DNA Intensity (% control)” value was 64.7 % control.

Turning to `CC(=O)N[C@H](Cc1ccc(O)cc1)C(=O)N1CCC[C@@H]1C(=O)N1C[C@@H](O)C[C@@H]1C(=O)NCC(=O)N[C@H](C)C(=O)NCC(N)=O` [UNC10303110A] (Ac-[dY][dP][dHyp]G[dA]G-NH2), in experiment [1] (setting [7]), the “4. Phagocytosis (% control)” value was found to be 73.8 % control. Further, in experiment [2] (setting [8]), the “4. Phagocytosis (% control)” value is 117.7 % control. Also, in experiment [3] (HMC3, compound 10 uM), the “1. Cell count (% control)” value is reported as 110.1 % control, the “2. Nuclear Area (% Control)” value is 103.7 % Control and the “3. Nuclear DNA Intensity (% control)” value turned out to be 94.9 % control. In experiment [4] (BV2, compound 10 uM), the “1. Cell count (% control)” value amounted to 113.8 % control, the “2. Nuclear Area (% Control)” value was found to be 106.0 % Control and the “3. Nuclear DNA Intensity (% control)” value is given as 97.3 % control.

Take `COC(=O)C1=C(C)NC2=C(C(=O)c3ccccc32)C1c1ccccc1OCc1ccccc1F` (stereo not drawn) [UNC10303111A]: the “4. Phagocytosis (% control)” value in experiment [1] (setting [7]) is on record as 61.6 % control. In experiment [2] (setting [8]), the “4. Phagocytosis (% control)” value stood at 307.3 % control. Further, in experiment [3] (HMC3, compound 10 uM), the “1. Cell count (% control)” value is listed as 166.8 % control, the “2. Nuclear Area (% Control)” value stood at 93.9 % Control and the “3. Nuclear DNA Intensity (% control)” value is given as 99.7 % control. For the same compound, in experiment [4] (BV2, compound 10 uM), the “1. Cell count (% control)” value stood at 84.0 % control, the “2. Nuclear Area (% Control)” value is given as 101.6 % Control and the “3. Nuclear DNA Intensity (% control)” value came to 106.1 % control.

Regarding `CCCN(CC1CC1)c1nc(C)nc(Nc2c(Cl)cc(Cl)cc2Cl)c1Cl.Cl` [UNC10303155A], the “4. Phagocytosis (% control)” value in experiment [1] (setting [7]) was found to be 86.3 % control. Besides, in experiment [2] (setting [8]), the “4. Phagocytosis (% control)” value is given as 323.0 % control. Further, in experiment [3] (HMC3, compound 10 uM), the “1. Cell count (% control)” value came out at 120.1 % control, the “2. Nuclear Area (% Control)” value is reported as 96.1 % Control and the “3. Nuclear DNA Intensity (% control)” value was found to be 105.3 % control. In experiment [4] (BV2, compound 10 uM), the “1. Cell count (% control)” value was 40.3 % control, the “2. Nuclear Area (% Control)” value was 117.9 % Control and the “3. Nuclear DNA Intensity (% control)” value came out at 98.5 % control.

With `CN1C[C@H](Nc2cnn(C)c(=O)c2Br)C[C@H](c2ccccc2)C1` [UNC10303157A], the “4. Phagocytosis (% control)” value in experiment [1] (setting [7]) stood at 103.4 % control. Moreover, the “4. Phagocytosis (% control)” value in experiment [2] (setting [8]) is given as 145.8 % control. Further, in experiment [3] (HMC3, compound 10 uM), the “1. Cell count (% control)” value was 86.8 % control, the “2. Nuclear Area (% Control)” value stood at 97.5 % Control and the “3. Nuclear DNA Intensity (% control)” value came to 100.9 % control. Also, in experiment [4] (BV2, compound 10 uM), the “1. Cell count (% control)” value was found to be 85.0 % control, the “2. Nuclear Area (% Control)” value turned out to be 105.0 % Control and the “3. Nuclear DNA Intensity (% control)” value stood at 100.7 % control.

Consider `CCN1CCN(Cc2ccc(NC(=O)c3ccc(C)c(NC(=O)c4cncc(-c5cccs5)c4)c3)cc2C(F)(F)F)CC1` [UNC10303158A], for which the “4. Phagocytosis (% control)” value in experiment [1] (setting [7]) was 0.0256 % control; in experiment [2] (setting [8]) it was 0.0043 % control. Moreover, the “1. Cell count (% control)” value in experiment [3] (HMC3, compound 10 uM) was 36.9 % control; in experiment [4] (BV2, compound 10 uM) it was 10.2 % control. For the same compound, the “2. Nuclear Area (% Control)” value in experiment [3] (HMC3, compound 10 uM) is on record as 59.1 % Control; in experiment [4] (BV2, compound 10 uM), 124.4 % Control. The “3. Nuclear DNA Intensity (% control)” value in experiment [3] (HMC3, compound 10 uM) is recorded as 194.1 % control; in experiment [4] (BV2, compound 10 uM), 45.5 % control.

Turning to `C=Cc1c(C)c2cc3nc(cc4[nH]c(cc5nc(cc1[nH]2)C(C)=C5CCC(=O)O)c(CCC(=O)OC)c4C)[C@@]1(C)C3=CC=C(C(=O)OC)[C@H]1C(=O)OC` [UNC10303159A], the “4. Phagocytosis (% control)” value in experiment [1] (setting [7]) is given as 5.8 % control; in experiment [2] (setting [8]), 174.1 % control. The “1. Cell count (% control)” value in experiment [3] (HMC3, compound 10 uM) came to 113.8 % control; in experiment [4] (BV2, compound 10 uM), 114.7 % control. Besides, the “2. Nuclear Area (% Control)” value in experiment [3] (HMC3, compound 10 uM) is on record as 131.2 % Control; in experiment [4] (BV2, compound 10 uM) it was 121.1 % Control. Also, the “3. Nuclear DNA Intensity (% control)” value in experiment [3] (HMC3, compound 10 uM) came to 126.0 % control; in experiment [4] (BV2, compound 10 uM), 113.2 % control.

Turning to `Cc1ccc(S(=O)(=O)O)cc1.Nc1n[nH]cc1-c1cc(Cl)ccc1Oc1cc(F)c(S(=O)(=O)Nc2cscn2)cc1Cl` [UNC10303160A], in experiment [1] (setting [7]), the “4. Phagocytosis (% control)” value amounted to 74.7 % control. The “4. Phagocytosis (% control)” value in experiment [2] (setting [8]) is 124.9 % control. In addition, in experiment [3] (HMC3, compound 10 uM), the “1. Cell count (% control)” value was 135.7 % control, the “2. Nuclear Area (% Control)” value is 95.0 % Control and the “3. Nuclear DNA Intensity (% control)” value came to 100.7 % control. Also, in experiment [4] (BV2, compound 10 uM), the “1. Cell count (% control)” value is listed as 121.5 % control, the “2. Nuclear Area (% Control)” value is 103.1 % Control and the “3. Nuclear DNA Intensity (% control)” value was found to be 99.3 % control.

On to `Cl.N=C(CCl)NCCC[C@H](NC(=O)c1ccccc1)C(N)=O` [UNC10303161A], for which, in experiment [1] (setting [7]), the “4. Phagocytosis (% control)” value is listed as 67.2 % control. For the same compound, in experiment [2] (setting [8]), the “4. Phagocytosis (% control)” value amounted to 134.6 % control. Further, in experiment [3] (HMC3, compound 10 uM), the “1. Cell count (% control)” value was 164.2 % control, the “2. Nuclear Area (% Control)” value is listed as 99.9 % Control and the “3. Nuclear DNA Intensity (% control)” value was 88.6 % control. For the same compound, in experiment [4] (BV2, compound 10 uM), the “1. Cell count (% control)” value is recorded as 107.1 % control, the “2. Nuclear Area (% Control)” value stood at 104.4 % Control and the “3. Nuclear DNA Intensity (% control)” value is recorded as 99.5 % control.

`COc1ccc(CCCN2CCC(COC(c3ccccc3)c3ccccc3)CC2)cc1` [UNC10303165A]: in experiment [1] (setting [7]), the “4. Phagocytosis (% control)” value worked out at 43.5 % control. In experiment [2] (setting [8]), the “4. Phagocytosis (% control)” value came out at 176.2 % control. In experiment [3] (HMC3, compound 10 uM), the “1. Cell count (% control)” value amounted to 110.9 % control, the “2. Nuclear Area (% Control)” value is 113.8 % Control and the “3. Nuclear DNA Intensity (% control)” value was 93.8 % control. For the same compound, in experiment [4] (BV2, compound 10 uM), the “1. Cell count (% control)” value amounted to 87.4 % control, the “2. Nuclear Area (% Control)” value amounted to 108.5 % Control and the “3. Nuclear DNA Intensity (% control)” value is on record as 107.0 % control.

Regarding `N[C@@H](CC(=O)Nc1ccc(Oc2cc(F)c(F)cc2Br)cc1)C(=O)O` [UNC10303167A], the “4. Phagocytosis (% control)” value in experiment [1] (setting [7]) was found to be 85.8 % control. Besides, the “4. Phagocytosis (% control)” value in experiment [2] (setting [8]) is 179.3 % control. In addition, in experiment [3] (HMC3, compound 10 uM), the “1. Cell count (% control)” value came out at 105.9 % control, the “2. Nuclear Area (% Control)” value is on record as 102.5 % Control and the “3. Nuclear DNA Intensity (% control)” value was found to be 96.0 % control. Further, in experiment [4] (BV2, compound 10 uM), the “1. Cell count (% control)” value is reported as 64.5 % control, the “2. Nuclear Area (% Control)” value worked out at 104.8 % Control and the “3. Nuclear DNA Intensity (% control)” value worked out at 103.7 % control.

For the origin of these results see paper PMC9019904, “AD Informer Set: Chemical tools to facilitate Alzheimer's disease drug discovery” (Alzheimer's & Dementia : Translational Research & Clinical …, 2022).
